row,SMILES,melting point
1,Cc1cc(-c2ccc(S(N)(=O)=O)cc2)n(-c2ccc(S(C)=O)cc2)c1 (stereo not given),249 to 251 °C
2,O[C@@H]1[C@H](O)CS[C@H]1n1cnc2c(NCc3cccc(I)c3)ncnc21,199 to 200 °C
3,C[C@H](c1ccccc1)n1c(N)nc2c(N)nc3ccccc3c21,135 to 140 °C
4,CCOC(=O)CNC(=O)c1nc2ccc(NCCCN3CCC(OC(c4ccccc4)c4ccccc4)CC3)nn2c1Cl,178 to 180 °C
5,COc1ccc(-c2cc(CO)c(=O)n(CC=Cc3ccc(Cl)cc3)n2)cc1F,158 to 160 °C
6,COC(=O)NCCOc1ccc(Oc2ccc(F)cc2)cc1,64 to 66 °C
7,CCOC(=O)c1c(Cl)c2cc(Cl)cnc2[nH]c1=O,228 °C
8,O=S(=O)(Nc1cccc2cc(-c3nc4ccccc4s3)[nH]c12)c1cccs1,201 to 202 °C
9,Cc1cc(=O)n2cccc(OCc3ccccc3)c2n1,110 to 112 °C
10,CCCSc1cc(C(=O)O)cc(S(N)(=O)=O)c1-c1ccccc1,85 to 87 °C
11,CC[Si](CC)(CC)CSc1cc(C(C)(C)C)c(O)c(C(C)(C)C)c1,58 to 60 °C
12,Cc1cc(C2=NOC(c3cc(Cl)cc(Cl)c3)(C(F)(F)F)C2)ccc1C(=O)Nc1cncnc1 (stereo not given),207 to 211 °C
13,Oc1ccc(Sc2cnnc3ccccc23)cc1,238 °C
14,O[C@@H](COc1cccc(-c2noc3ccsc23)c1)CN1CCN(c2ccccc2F)CC1,96 to 99 °C
15,Cc1nnc(-c2ccc3occ(C(=O)O)c3c2)o1,252 to 253 °C
16,O=C(O)c1cc(Cn2cc(C3c4ccccc4C=Cc4ccccc43)c(=S)[nH]c2=O)ccc1Cc1ccccc1,135 °C
17,C=C(c1ccccc1OC(C)c1ccccc1)n1ccnc1 (stereo not given),172 to 174 °C
18,COc1ccc(CNc2nccc(-c3c[nH]nc3-c3ccc(F)cc3)n2)cc1,183 to 185 °C
19,Cc1ccnc(-c2ccc(C)c(-c3ccccc3)n2)n1,105 °C
20,CC(C)(CC(=O)O)CC(=O)NC1(C(=O)NCCCCNc2ncccn2)Cc2ccccc2C1,70 to 83 °C
21,N#Cc1c(N2CCCCC2)cc(-c2ccco2)c2c1Cc1ccccc1-2,160 to 162 °C
22,COc1ccccc1NC(=O)c1ccccc1SSc1ccccc1C(=O)Nc1ccccc1OC,154 to 155 °C
23,CCNc1nc2cc(COc3cccc(C=O)c3)ccc2o1,85 to 90 °C
24,CCC(CC)N(Cc1ccc(C#N)cc1)S(=O)(=O)c1ccc(Cl)cc1,123 to 125 °C
25,COc1cccc(CCNc2nc(N)n3nc(-c4ccco4)nc3n2)c1,172 to 174 °C

row,SMILES,melting point
1,CC(C=CC=C(C)c1cc2c(s1)C(C)(C)CCC2(C)C)=CC(=O)O,226 to 228 °C
2,COC1=C(OC)CC(C)(CNCCCCc2ccc(NC(=O)c3cccc4c(=O)c5cc(F)ccc5sc34)cc2)C=C1 (stereo not given),168 °C
3,COc1c2c(c(OC)c(OC)c1OC)CC(CCCOc1ccc(C(=O)O)cc1)C2,160 to 161 °C
4,CCOC(=O)CCCCCc1oc(=O)[nH]c1-c1ccc(Cl)cc1,113 to 114 °C
5,CN1C(=O)N(c2ccc(C#N)c(C(F)(F)F)c2)C(=O)C1(CO)c1ccccc1 (stereo not given),160 °C
6,O=C(O)CSC12CC3CC(CC(C3)C1)C2,71 to 73 °C
7,O=[N+]([O-])C/C=C/c1sc2ccc(Cl)cc2c1Cl,143 to 146 °C
8,CCCc1c(-c2ccc(Cl)cc2)n[nH]c1-c1cccs1,129 to 132 °C
9,CC(=O)c1ccc(N)c(C#N)c1,155 to 159 °C
10,O=C(Nc1cc(-c2nc(Cc3ccccc3)c[nH]2)ccn1)c1ccccc1,110 to 112 °C
11,O=C1C(=O)c2ccccc2C2=C1SCC1(CCN(Cc3ccc(F)cc3)CC1)O2,104 to 106 °C
12,COc1nc(C)cnc1NS(=O)(=O)c1ccccc1-c1ccc(C)cc1,184 to 185 °C
13,CC(=O)O[C@H]1C=C[C@@H](O)C1,48 to 49 °C
14,COc1ccc(-c2ccc(N)nn2)cc1OC(C)C,184 °C
15,Cc1c2c(c(-c3ccc(C(F)(F)F)cc3)c3c4c(ccc13)OCO4)CNC2=O,303 to 305 °C
16,Cc1cccc(C(=O)c2ccc(Cl)cc2)c1O,55 to 58 °C
17,COc1cc(N2CCCN(C)CC2)ccc1Nc1ncc2ccc(-c3ccccc3OC)n2n1,69 to 77 °C
18,N#CCn1c2ccccc2c2nc3ccccc3nc21,231 to 232 °C
19,O=c1oc(-c2ccccc2)cc(O)c1C(CC1CC1)SC1CCCCC1 (stereo not given),69 to 71 °C
20,CN(C)c1ccc(-c2cnc3[nH]cc(C(=O)N[C@@H](C(=O)N4CC(C#N)C4)C4CC4)c3n2)cc1,175 to 180 °C
21,N#CCC(=O)Nc1ccc(-c2ncn(-c3ccc(OC(F)(F)F)cc3)n2)cc1,250 to 252 °C
22,Cc1ccc(S(=O)(=O)OC2CCN(S(=O)(=O)c3ccc(C)cc3)CC2)cc1,137 to 140 °C
23,CCCCSc1cc(C(=O)OC)cc(S(N)(=O)=O)c1Cc1ccccc1,118 to 120 °C
24,Cc1ncsc1C(C)(O)c1ccco1 (stereo not given),127 to 128 °C
25,COc1ccc(-c2csc(C(=O)O)n2)cc1OC1CC2CCC1C2 (stereo not given),112 to 113 °C

row,SMILES,melting point
1,Cc1cccc(COc2ccc3c(c2)[C@@H](O)[C@H](Cc2cccnc2)CO3)n1 (relative stereo),66 to 68 °C
2,CCCC1(CC(=O)O)OCCc2c1[nH]c1c(F)ccc(C(=O)N3CCOCC3)c21 (stereo not given),98 to 100 °C
3,COc1cccc(-n2c(-c3sc(NC(=O)c4ccccc4)nc3-c3ccccc3)nc3ccccc3c2=O)c1,195 to 196 °C
4,Cc1nccn1CC1CCc2c(c3ccccc3n2C)/C1=N/OC(=O)c1cccc(C#N)c1 (stereo not given),160 to 166 °C
5,CC(=O)Nc1nc(C)c(S(=O)(=O)n2c(CCCC(=O)O)cc3cc(Cl)ccc32)s1,231 to 233 °C
6,CC(C)(C)c1cc(CN2CC(N(O)C(=O)Oc3ccccc3)C2)cc(C(C)(C)C)c1O,161 to 163 °C
7,Nc1nc2c(NCc3ccccc3)ncnc2n1C1OC(CO)C(O)C1O (stereo not given),80 to 82 °C
8,Cn1cc(C(=O)NCc2ccc(Cl)cc2)c(=O)c2cc(CN3CCCOCC3)ccc21,178 to 179 °C
9,CCOC(=O)CNC(=O)C=C(c1ccc(Cl)cc1)c1ccc(Cl)cc1,123 to 124 °C
10,COC(=O)c1ccc(CNC(=O)c2[nH]c(-c3cccs3)cc2-c2ccc(F)cc2)cn1,174 to 175 °C
11,O=C(O)CCNc1cc(C(c2cc(F)ccc2F)S(=O)(=O)c2ccc(Cl)cc2)c(Cl)cn1 (stereo not given),200 to 205 °C
12,Brc1ccc(-c2coc3ccc(-c4ccccc4)cc23)cc1,90 to 92 °C
13,FC(F)(F)Oc1ccc(Cn2cnc3c(-c4ccco4)ncnc32)cc1,146 to 147 °C
14,COc1ccc(S(=O)(=O)N2c3cc(F)ccc3-c3ccc(F)cc3C2C)c(OC)c1 (stereo not given),112 to 115 °C
15,Cc1cc(C(C#N)=CN(C)C)cc(C)n1,149 °C
16,O=C1COCC(=O)N1CCCCCCN1CCCCC1,121 to 122 °C
17,C=COC(=O)N1C[C@@H]2C(=O)CCC(c3cccc(F)c3)(c3cccc(F)c3)[C@@H]2C1 (racemic),152 °C
18,N#Cc1ccc(NC(=O)NCCCCl)cc1,95 to 97 °C
19,Cc1cc(C(=O)CCc2cc(-c3ccc(C(F)(F)F)cc3)nn2Cc2ccccc2)ccc1OC(C)(C)C(=O)O,55 °C
20,O=C(SCC1C(=O)OCC1c1ccccc1)c1ccccc1F (stereo not given),92 to 94 °C
21,CC(C)CCn1ccc(-c2ccc(NC3CCOCC3)cc2)c(Cl)c1=O,> 300 °C
22,CCSc1c(O)ccc2[nH]ncc12,116 °C
23,O=C(NC1CCCCCC1)c1cccc(C(=O)NC2CCCCCC2)c1,285 to 286 °C
24,Cn1c(CO)nc2ccc(Sc3ccccc3)nc21,119 to 120 °C
25,COC(=O)c1nccnc1Nc1ccccc1,72 to 75 °C

row,SMILES,melting point
1,CC(C)N1CCC(COc2ccc(-c3ccc(=O)[nH]n3)cn2)CC1,188 to 191 °C
2,FC(F)(F)c1cccc(C(c2ccc3ncccc3c2Cl)n2cncn2)c1 (stereo not given),144 °C
3,Cc1oc(-c2cccc(-c3nc(CCO)c(C)o3)c2)nc1CCO,134 to 135 °C
4,Cc1cc(OC2SCC(O)C(O)C2O)c(-c2ccnn2-c2ccccc2)cc1Cl (stereo not given),95 to 99 °C
5,CC(C(=O)O)c1ccc2ocnc2c1 (stereo not given),126 to 128 °C
6,O=C(NC1CNCCn2c1nc(-c1ccncn1)cc2=O)c1ccccn1 (racemic),256 to 258 °C
7,CCC(=O)NCCC1CCc2cc(Br)c3c(c21)CCCO3 (stereo not given),114 to 116 °C
8,CN(C)C=C1CN=Cc2ccccc2C1=O,131 to 133 °C
9,O=c1c2c[nH]c3ccccc3c-2nn1-c1cnc2ccccc2c1,> 350 °C
10,Cc1ccc(S(=O)(=O)Cl)c(C)c1NC(=O)CCl,148 to 149 °C
11,Cc1nc2cc(-c3cccc(C=C4SC(=O)NC4=O)c3)cc(C34CC5CC(CC(C5)C3)C4)c2o1,355 to 358 °C
12,CC(C)c1c(Cl)nc2ncnn2c1Cl,119 °C
13,COc1ccc(C(=CC#N)c2cccc([N+](=O)[O-])c2)cc1OC,118 to 120 °C
14,Cc1nc(N)c2nc(C)n(CCCCCS(C)(=O)=O)c2c1C,199 to 200 °C
15,c1ccc(CN2CCC3(CC2)OCc2ccccc23)cc1,67 to 68.5 °C
16,COc1ccccc1CCSc1c(O)cc(-c2ccccc2)oc1=O,114 to 115 °C
17,CC(C)Oc1cc(CC(=O)O)c(F)cc1Cl,57 to 58 °C
18,CN(O)C(=O)c1ccc(CCCCc2ccccc2C(=O)O)cc1,94 to 95 °C
19,O=CCCC[C@@H](C(=O)O)N1C(=O)c2ccccc2C1=O,219 to 222 °C
20,Cn1cc(C2=C(c3cn(CCCNS(=O)(=O)c4ccccc4)c4ccccc34)C(=O)NC2=O)c2ccccc21,125 to 128 °C
21,Nc1cccc(-c2ccc(Cl)nn2)c1,118 to 121 °C
22,CC1CN(Cc2ccccc2)Cc2cc(-c3ccccc3)n(Cc3ccccc3)c21 (stereo not given),131 °C
23,Fc1ccc(-c2ncn(C3CCNCC3)c2-c2ccnc(Oc3cccc(F)c3)n2)cc1,155 to 156 °C
24,CC(=O)C(C(C)=O)C(=O)Nc1ccccc1,119 to 121 °C
25,COC(=O)c1cc(S(C)(=O)=O)ccc1OC,113 to 115 °C

# From a melting point compilation (Tetko et al.; mined from patent text by program, amines drawn as free bases though some values may be those of a salt)
